Assays:
Experiment in all cases: post-emergence herbicidal activity, greenhouse
Format in all cases: in vivo
Conditions in all cases: Table I, 4 WAT
Canada Thistle = tested on: Canada Thistle
Text: (§1) A good grade of top soil is placed in aluminum pans having holes in the bottom and compacted to a depth of 0.95 to 1.27 cm. from the top of the pan. A predetermined number of seeds of each of several dicotyledonous and monocotyledonous annual plant species and/or vegetative propagules for the perennial plant species are placed on the soil and pressed into the soil surface. The seeds and/or vegetative propagules are covered with soil and leveled. The pans are then placed on a sand bench in the greenhouse and watered from below as needed. After the plants reach the desired age (two to three weeks), each pan except for the control pans is removed individually to a spraying chamber and sprayed by means of an atomizer operating at a positive air pressure of approximately 1.46 kg/cm^2 absolute. The atomizer contains 6 ml. of a solution or suspension of the chemical. In that 6 ml., is an amount of a cyclohexanone emulsifying agent mixture to give a spray solution or suspension which contains about 0.4% by weight of the emulsifier. The spray solution or suspension contains a sufficient amount of the candidate chemical in order to give application rates corresponding to those set forth in the tables. The spray solution is prepared by taking an aliquot of a 1.0% by weight stock solution or suspension of the candidate chemical in an organic solvent such as acetone or tetrahydrofuran or in water. The emulsifying agent employed is a mixture comprising 35 weight percent butylamine dodecylbenzene sulfonate and 65 weight percent of a tall oil ethylene oxide condensate having about 11 moles of ethylene oxide per mole of tall oil. The pans are returned to the greenhouse and watered as before and the injury to the plants as compared to the control is observed at approximately two and four weeks as indicated in the tables under WAT and the results recorded. In some instances, the two-week observations are omitted.
(§2) The post-emergence herbicidal activity index used in Table I is as follows: […]

Cocklebur = tested on: Cocklebur
Text: as §1, §2

Velvetleaf = tested on: Velvetleaf
Text: as §1, §2

Morningglory = tested on: Morningglory
Text: as §1, §2

Barnyardgrass = tested on: Barnyardgrass
Text: as §1, §2

Quackgrass = tested on: Quackgrass
Text: as §1, §2

Johnsongrass = tested on: Johnsongrass
Text: as §1, §2

Lambsquarters = tested on: Lambsquarters
Text: as §1, §2

Downy Brome = tested on: Downy Brome
Text: as §1, §2

Yellow Nutsedge = tested on: Yellow Nutsedge
Text: as §1, §2

Smartweed = tested on: Smartweed
Text: as §1, §2

`COc1ccc(SSN(CC#N)CP(=O)(Oc2ccccc2)Oc2ccccc2)cc1` [III, Phosphonic acid, [[(cyanomethyl)[(4-methoxyphenyl)-dithio]amino]methyl]-, diphenyl ester] was tested, and the “post-emergence herbicidal activity index” value (Canada Thistle; 5.6 kg/h) was 2 (50-74% control), the “post-emergence herbicidal activity index” value (Canada Thistle; 11.2 kg/h) was 2 (50-74% control) and the “post-emergence herbicidal activity index” value (Cocklebur; 5.6 kg/h) was 1 (25-49% control). For the same compound, the “post-emergence herbicidal activity index” value (Cocklebur; 11.2 kg/h) was 2 (50-74% control), the “post-emergence herbicidal activity index” value (Velvetleaf; 5.6 kg/h) was 1 (25-49% control) and the “post-emergence herbicidal activity index” value (Velvetleaf; 11.2 kg/h) was 1 (25-49% control). The “post-emergence herbicidal activity index” value (Morningglory; 5.6 kg/h) was 1 (25-49% control), the “post-emergence herbicidal activity index” value (Morningglory; 11.2 kg/h) was 2 (50-74% control) and the “post-emergence herbicidal activity index” value (Barnyardgrass; 5.6 kg/h) was 2 (50-74% control). For the same compound, the “post-emergence herbicidal activity index” value (Barnyardgrass; 11.2 kg/h) was 2 (50-74% control), the “post-emergence herbicidal activity index” value (Quackgrass; 5.6 kg/h) was 0 (0-24% control) and the “post-emergence herbicidal activity index” value (Quackgrass; 11.2 kg/h) was 1 (25-49% control). For the same compound, the “post-emergence herbicidal activity index” value (Johnsongrass; 5.6 kg/h) was 2 (50-74% control), the “post-emergence herbicidal activity index” value (Johnsongrass; 11.2 kg/h) was 2 (50-74% control) and the “post-emergence herbicidal activity index” value (Lambsquarters; 5.6 kg/h) was 3 (75-99% control). For the same compound, the “post-emergence herbicidal activity index” value (Lambsquarters; 11.2 kg/h) was 4 (100% control), the “post-emergence herbicidal activity index” value (Downy Brome; 5.6 kg/h) was 0 (0-24% control) and the “post-emergence herbicidal activity index” value (Downy Brome; 11.2 kg/h) was 2 (50-74% control). For the same compound, the “post-emergence herbicidal activity index” value (Yellow Nutsedge; 5.6 kg/h) was 1 (25-49% control), the “post-emergence herbicidal activity index” value (Yellow Nutsedge; 11.2 kg/h) was 2 (50-74% control) and the “post-emergence herbicidal activity index” value (Smartweed; 11.2 kg/h) was 0 (0-24% control).

For `CCCCCCCCSSN(CC#N)CP(=O)(Oc1ccccc1)Oc1ccccc1` [II, Phosphonic acid, [[(cyanomethyl)(octyldithio)-amino]methyl]-, diphenyl ester], the “post-emergence herbicidal activity index” value (Canada Thistle; 5.6 kg/h) was 1 (25-49% control), the “post-emergence herbicidal activity index” value (Canada Thistle; 11.2 kg/h) was 1 (25-49% control) and the “post-emergence herbicidal activity index” value (Cocklebur; 5.6 kg/h) was 2 (50-74% control). For the same compound, the “post-emergence herbicidal activity index” value (Cocklebur; 11.2 kg/h) was 2 (50-74% control), the “post-emergence herbicidal activity index” value (Velvetleaf; 5.6 kg/h) was 1 (25-49% control) and the “post-emergence herbicidal activity index” value (Velvetleaf; 11.2 kg/h) was 1 (25-49% control). For the same compound, the “post-emergence herbicidal activity index” value (Morningglory; 5.6 kg/h) was 2 (50-74% control), the “post-emergence herbicidal activity index” value (Morningglory; 11.2 kg/h) was 2 (50-74% control) and the “post-emergence herbicidal activity index” value (Barnyardgrass; 5.6 kg/h) was 1 (25-49% control). For the same compound, the “post-emergence herbicidal activity index” value (Barnyardgrass; 11.2 kg/h) was 2 (50-74% control), the “post-emergence herbicidal activity index” value (Quackgrass; 5.6 kg/h) was 0 (0-24% control) and the “post-emergence herbicidal activity index” value (Quackgrass; 11.2 kg/h) was 1 (25-49% control). The “post-emergence herbicidal activity index” value (Johnsongrass; 5.6 kg/h) was 3 (75-99% control), the “post-emergence herbicidal activity index” value (Johnsongrass; 11.2 kg/h) was 2 (50-74% control) and the “post-emergence herbicidal activity index” value (Lambsquarters; 5.6 kg/h) was 3 (75-99% control). The “post-emergence herbicidal activity index” value (Lambsquarters; 11.2 kg/h) was 3 (75-99% control), the “post-emergence herbicidal activity index” value (Downy Brome; 5.6 kg/h) was 1 (25-49% control) and the “post-emergence herbicidal activity index” value (Downy Brome; 11.2 kg/h) was 0 (0-24% control). The “post-emergence herbicidal activity index” value (Yellow Nutsedge; 5.6 kg/h) was 2 (50-74% control), the “post-emergence herbicidal activity index” value (Yellow Nutsedge; 11.2 kg/h) was 2 (50-74% control) and the “post-emergence herbicidal activity index” value (Smartweed; 5.6 kg/h) was 0 (0-24% control). For the same compound, the “post-emergence herbicidal activity index” value (Smartweed; 11.2 kg/h) was 1 (25-49% control).
